Tests used:
[1] = test system: VCaP cells; experiment: VCaP growth inhibition assay; assay type: cell-based; conditions: 30 pM R1881, 9 days, CTG
How it was run: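 Growth read by CTG luminescence after 9-day exposure to compound (final 100 nM–10 fM, 1:5 steps) plus 30 pM R1881, in phenol red-free DMEM with 5% CSS. Cells pre-incubated 72 h before dosing; IC50 by nonlinear 4-parameter regression.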

[2] = test system: AR / CBP ternary complex; experiment: Ternary complex formation assay (sandwich ELISA, AR capture / CBP detection) in VCaP cell lysates; assay type: cell-based; conditions: 1.5 hours treatment, sandwich ELISA (AR capture, CBP or p300 detection)
How it was run: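 Anti-AR (AR 441)-coated plates capture AR from lysates of VCaP cells grown ≥3 days at 50K/well in 5% charcoal-stripped FBS, dosed with bifunctional for 1.5 h and lysed 30 min at 4 °C. Co-captured CBP/p300 is probed with rabbit mAb and HRP anti-rabbit, then QuantaRed fluorescence (570/585) is read at 0, 5 and 15 min.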

Row | SMILES | IC50 [1] | EC50 [2]
1 | CC(=O)N1CCc2c(c(N3CCCc4cc(-c5cnn(C)c5)c(C(F)F)cc43)nn2C2CCN(CC3C(C)CN(c4ncc(C(=O)NC5C(C)(C)C(Oc6ccc(C#N)c(C)c6)C5(C)C)cn4)CC3C)CC2)C1 (stereo not drawn) [Compound 462, 2-[4-[[4-[5-acetyl-3-[7-(difluoromethyl)-6-(1-methylpyrazol-4-yl)-3,4-dihydro-2H-quinolin-1-yl]-6,7-dihydro-4H-pyrazolo[4,3-c]pyridin-1-yl]-1-piperidyl]methyl]-3,5-dimethyl-1-piperidyl]-N-[3-(4-cyano-3-methyl-phenoxy)-2,2,4,4-tetramethyl-cyclobutyl]pyrimidine-5-carboxamide] | ≤ 0.1 nM | < 1 nM
2 | COc1cc(OC2C(C)(C)C(NC(=O)c3ccc(N4CCC(OC5CCC(n6nc(N7CCCc8cc(-c9cnn(C)c9)c(C(F)F)cc87)c7c6CCN(C(C)=O)C7)CC5)CC4)cc3)C2(C)C)ccc1C#N (stereo not drawn) [Compound 308, 4-[4-[4-[5-acetyl-3-[7-(difluoromethyl)-6-(1-methylpyrazol-4-yl)-3,4-dihydro-2H-quinolin-1-yl]-6,7-dihydro-4H-pyrazolo[4,3-c]pyridin-1-yl]cyclohexoxy]-1-piperidyl]-N-[3-(4-cyano-3-methoxy-phenoxy)-2,2,4,4-tetramethyl-cyclobutyl]benzamide] | ≤ 0.1 nM | < 1 nM
3 | CC(=O)N1CCc2c(c(-c3cccc4cc(-c5ccc(C(=O)NCCOCc6ncc(C(=O)NC7C(C)(C)C(Oc8ccc(C#N)c(Cl)c8)C7(C)C)cn6)nc5)ncc34)nn2C2CCOCC2)C1 (stereo not drawn) [Compound 76, 2-[2-[[5-[8-(5-acetyl-1-tetrahydropyran-4-yl-6,7-dihydro-4H-pyrazolo[4,3-c]pyridin-3-yl)-3-isoquinolyl]pyridine-2-carbonyl]amino]ethoxymethyl]-N-[3-(3-chloro-4-cyano-phenoxy)-2,2,4,4-tetramethyl-cyclobutyl]pyrimidine-5-carboxamide] | ≤ 0.1 nM | < 1 nM
4 | COC(=O)N1c2ccc3c(nc(Cc4ccccc4)n3[C@@H]3CCC[C@@H](C(=O)N4CCN(c5ncc(C(=O)NC6C(C)(C)C(Oc7ccc(C#N)c(Cl)c7)C6(C)C)cn5)CC4)C3)c2CC[C@@H]1C (stereo partly drawn) [Compound 127, methyl (7S)-2-benzyl-3-[(1R,3R)-3-[4-[5-[[3-(3-chloro-4-cyano-phenoxy)-2,2,4,4-tetramethyl-cyclobutyl]carbamoyl]pyrimidin-2-yl]piperazine-1-carbonyl]cyclohexyl]-7-methyl-8,9-dihydro-7H-imidazo[4,5-f]quinoline-6-carboxylate] | ≤ 0.1 nM | < 1 nM
5 | CC(=O)N1CCc2c(c(Nc3ccc(-c4cnn(C)c4)cc3F)nn2C2CCN(C(=O)COC3CCN(c4ncc(C(=O)NC5C(C)(C)C(Oc6ccc(C#N)c(Cl)c6)C5(C)C)cn4)CC3)CC2)C1 (stereo not drawn) [Compound 177, 2-[4-[2-[4-[5-acetyl-3-[2-fluoro-4-(1-methylpyrazol-4-yl)anilino]-6,7-dihydro-4H-pyrazolo[4,3-c]pyridin-1-yl]-1-piperidyl]-2-oxo-ethoxy]-1-piperidyl]-N-[3-(3-chloro-4-cyano-phenoxy)-2,2,4,4-tetramethyl-cyclobutyl]pyrimidine-5-carboxamide] | > 100 nM | < 1 nM
6 | CC(=O)N1CCc2c(c(Nc3ccc(-c4cnn(C)c4)cc3F)nn2C2CCN(CC3CCN(c4ncc(C(=O)NC5C(C)(C)C(Oc6ccc(C#N)c(Cl)c6)C5(C)C)cn4)CC3)CC2)C1 (stereo not drawn) [Compound 186, 2-[4-[[4-[5-acetyl-3-[2-fluoro-4-(1-methylpyrazol-4-yl)anilino]-6,7-dihydro-4H-pyrazolo[4,3-c]pyridin-1-yl]-1-piperidyl]methyl]-1-piperidyl]-N-[3-(3-chloro-4-cyano-phenoxy)-2,2,4,4-tetramethyl-cyclobutyl]pyrimidine-5-carboxamide] | 0.1 to 1 nM | < 1 nM
7 | CN1C(=O)CCc2cc(N3CCCc4cc(-c5ccc(CCC6CCN(c7ncc(C(=O)NC8C(C)(C)C(Oc9ccc(C#N)c(Cl)c9)C8(C)C)cn7)CC6)nc5)c(C(F)F)cc43)ccc21 (stereo not drawn) [Compound 239, N-[3-(3-chloro-4-cyano-phenoxy)-2,2,4,4-tetramethyl-cyclobutyl]-2-[4-[2-[5-[7-(difluoromethyl)-1-(1-methyl-2-oxo-3,4-dihydroquinolin-6-yl)-3,4-dihydro-2H-quinolin-6-yl]-2-pyridyl]ethyl]-1-piperidyl]pyrimidine-5-carboxamide] | 1 to 100 nM | < 1 nM
8 | COc1cc(OC2C(C)(C)C(NC(=O)c3ccc(N4CCC(C)(N5CCC(n6nc(N7CCCc8cc(-c9cnn(C)c9)c(C(F)F)cc87)c7c6CCN(C(C)=O)C7)CC5)CC4)cc3)C2(C)C)ccc1C#N (stereo not drawn) [Compound 305, 4-[4-[4-[5-acetyl-3-[7-(difluoromethyl)-6-(1-methylpyrazol-4-yl)-3,4-dihydro-2H-quinolin-1-yl]-6,7-dihydro-4H-pyrazolo[4,3-c]pyridin-1-yl]-1-piperidyl]-4-methyl-1-piperidyl]-N-[3-(4-cyano-3-methoxy-phenoxy)-2,2,4,4-tetramethyl-cyclobutyl]benzamide] | ≤ 0.1 nM | < 1 nM
9 | COc1cc(OC2C(C)(C)C(NC(=O)c3ccc(N4CC5CC4CC5CN4CCC(n5nc(N6CCCc7cc(-c8cnn(C)c8)c(C(F)F)cc76)c6c5CCN(C(C)=O)C6)CC4)cc3)C2(C)C)ccc1C#N (stereo not drawn) [Compound 255, 4-[5-[[4-[5-acetyl-3-[7-(difluoromethyl)-6-(1-methylpyrazol-4-yl)-3,4-dihydro-2H-quinolin-1-yl]-6,7-dihydro-4H-pyrazolo[4,3-c]pyridin-1-yl]-1-piperidyl]methyl]-2-azabicyclo[2.2.1]heptan-2-yl]-N-[3-(4-cyano-3-methoxy-phenoxy)-2,2,4,4-tetramethyl-cyclobutyl]benzamide] | 0.1 to 1 nM | < 1 nM
10 | CC(=O)N1CCc2c(c(N3CCCc4cc(-c5cnn(C)c5)c(C(F)F)cc43)nn2C2CN(CC3CCN(c4ncc(C(=O)NC5C(C)(C)C(Oc6ccc(C#N)c(Cl)c6)C5(C)C)cn4)CC3)C2)C1 (stereo not drawn) [Compound 10, 2-[4-[[3-[5-acetyl-3-[7-(difluoromethyl)-6-(1-methylpyrazol-4-yl)-3,4-dihydro-2H-quinolin-1-yl]-6,7-dihydro-4H-pyrazolo[4,3-c]pyridin-1-yl]azetidin-1-yl]methyl]-1-piperidyl]-N-[3-(3-chloro-4-cyano-phenoxy)-2,2,4,4-tetramethyl-cyclobutyl]pyrimidine-5-carboxamide] | 1 to 100 nM | > 100 nM
11 | COc1cc(OC2C(C)(C)C(NC(=O)c3ccc(N4CCC[C@H](N5CCC(n6nc(N7CCCc8cc(-c9cnn(C)c9)c(C(F)F)cc87)c7c6CCN(C(C)=O)C7)CC5)C4)cc3)C2(C)C)ccc1C#N (stereo partly drawn) [Compound 399, 4-[(3S)-3-[4-[5-acetyl-3-[7-(difluoromethyl)-6-(1-methylpyrazol-4-yl)-3,4-dihydro-2H-quinolin-1-yl]-6,7-dihydro-4H-pyrazolo[4,3-c]pyridin-1-yl]-1-piperidyl]-1-piperidyl]-N-[3-(4-cyano-3-methoxy-phenoxy)-2,2,4,4-tetramethyl-cyclobutyl]benzamide] | 1 to 100 nM | 1 to 10 nM
12 | CC(=O)N1CCc2c(c(N3CCCc4cc(-c5cnn(C)c5)c(C)cc43)nn2C2CCN(C3CCC4(CC3)CN(c3ncc(C(=O)NC5C(C)(C)C(Oc6ccc(C#N)c(C)c6)C5(C)C)cn3)C4)CC2)C1 (stereo not drawn) [Compound 471, 2-[7-[4-[5-acetyl-3-[7-methyl-6-(1-methylpyrazol-4-yl)-3,4-dihydro-2H-quinolin-1-yl]-6,7-dihydro-4H-pyrazolo[4,3-c]pyridin-1-yl]-1-piperidyl]-2-azaspiro[3.5]nonan-2-yl]-N-[3-(4-cyano-3-methyl-phenoxy)-2,2,4,4-tetramethyl-cyclobutyl]pyrimidine-5-carboxamide] | 0.1 to 1 nM | < 1 nM
13 | COc1cc(OC2C(C)(C)C(NC(=O)c3ccc(N4CCC(OC5CCC(n6nc(N7CCCc8cc(-c9cnn(C)c9)c(C(F)F)cc87)c7c6CCN(C(C)=O)C7)CC5)CC4)cc3)C2(C)C)ccc1C#N (stereo not drawn) [Compound 309, 4-[4-[4-[5-acetyl-3-[7-(difluoromethyl)-6-(1-methylpyrazol-4-yl)-3,4-dihydro-2H-quinolin-1-yl]-6,7-dihydro-4H-pyrazolo[4,3-c]pyridin-1-yl]cyclohexoxy]-1-piperidyl]-N-[3-(4-cyano-3-methoxy-phenoxy)-2,2,4,4-tetramethyl-cyclobutyl]benzamide] | 0.1 to 1 nM | < 1 nM
14 | COc1cc(OC2C(C)(C)C(NC(=O)c3ccc(N4CCC(CCc5ccc(-c6cc7c(cn6)N(c6nn(C8CCOCC8)c8c6CN(C(C)=O)CC8)CCC7)cn5)CC4)cc3)C2(C)C)ccc1C#N (stereo not drawn) [Compound 246, 4-[4-[2-[5-[1-(5-acetyl-1-tetrahydropyran-4-yl-6,7-dihydro-4H-pyrazolo[4,3-c]pyridin-3-yl)-3,4-dihydro-2H-1,7-naphthyridin-6-yl]-2-pyridyl]ethyl]-1-piperidyl]-N-[3-(4-cyano-3-methoxy-phenoxy)-2,2,4,4-tetramethyl-cyclobutyl]benzamide] | 0.1 to 1 nM | < 1 nM
15 | CC(=O)N1CCc2c(c(N3CCCc4ccc(C(F)F)cc43)nn2C2CC3(C2)CN(CC2CC4(C2)CN(c2ncc(C(=O)NC5C(C)(C)C(Oc6ccc(C#N)c(Cl)c6)C5(C)C)cn2)C4)C3)C1 (stereo not drawn) [Compound 219, 2-[6-[[6-[5-acetyl-3-[7-(difluoromethyl)-3,4-dihydro-2H-quinolin-1-yl]-6,7-dihydro-4H-pyrazolo[4,3-c]pyridin-1-yl]-2-azaspiro[3.3]heptan-2-yl]methyl]-2-azaspiro[3.3]heptan-2-yl]-N-[3-(3-chloro-4-cyano-phenoxy)-2,2,4,4-tetramethyl-cyclobutyl]pyrimidine-5-carboxamide] | 0.1 to 1 nM | 1 to 10 nM

— US20250129070A1, “BIFUNCTIONAL ANDROGEN RECEPTOR COMPOUNDS” (priority 2023, published 2025)
